Assay results reported in US7399475B1, “Inactivated microorganisms comprising substances having pharmacological activity” (Toner Enterprise Inc., priority 1999, dated 2008).

Assays:
[1] = Quantity of active agent incorporated in the yeast cells, released by hypertonic (osmotic) treatment and determined by HPLC; type: physicochemical, Saccharomyces cerevisiae; settings: batch not stated, column unlabelled
Procedure: The suspensions obtained as described above were tested in order to check the quantity of ascorbic acid that had accumulated in the cells.
Step IV)—The suspension obtained in Step III) was centrifuged at 4000 r.p.m. (1252 R.C.F.). The precipitated was washed twice (sample A) or thrice (sample B) with an isotonic solution of sodium chloride (0.9%) keeping it in suspension during each washing.
Step V)—The centrifugate was brought up to 80 g with the hypertonic solution (NaCl 2.0M) used for Step I). In order to complete the osmotic treatment, the suspension was kept under gentle stirring for 6 hours at 25° C.
Step VI)—The ascorbic acid present in each solution (mg/ml) and in the microorganism (mg/g) was determined by HPLC, by the use of the following formula: mg/g=Ac×Ps×fs×Ds×1000/As×Pc×Dc,
The suspension obtained as described above was tested in order to check the quantity of oxytetracycline that had accumulated in the cells.
Step IV)—The suspension obtained in Step II) was centrifuged at 4000 r.p.m. (1252 R.C.F.). The centrifugate was washed twice (A) or thrice (B) with an isotonic solution of sodium chloride (0.9%) keeping it in suspension for 10 minutes before centrifugation.
Step VI)—The oxytetracycline HCl present in each solution (mg/ml) and in the microorganism (mg/g) was determined by HPLC, by the use of the following formula: mg/g=Ac×Ps×fs×Ds×1000/As×Pc×Dc,
The suspension obtained as described above was tested in order to check the quantity of sodium sulphadimethoxine that had accumulated in the cells.
Step VI)—The sodium sulphadimethoxine present in each (mg/ml) and in the microorganism (mg/g) was determined by HPLC, by the use of the following formula: mg/g=Ac×Ps×fs×Ds×1000/As×Pc×Dc,
The suspension as previously obtained was tested to ascertain the quantity of sodium sulphadimethoxin that had accumulated in the cells.
Step IV)—For analytical reasons, the suspension obtained in Step III) was diluted with an isotonic solution of sodium sulphadimethoxin (5.17%) to 200 g. An aliquot of 80 g of suspension was taken. The suspension was centrifuged at 10 000 r.p.m., and the centrifugate was washed twice (A) or thrice (B) with an isotonic solution of sodium chloride (0.9%). The suspension was stirred for 10 minutes before each washing.
Step VI)—The sodium sulphadimethoxin present in solution (mg/ml) and in the microorganism (mg/g) was determined by HPLC, by the use of the following formula: mg/g=Ac×Ps×fs×Ds×1000/As×Pc×Dc,
The suspension obtained as described above was tested in order to check the quantity of ascorbic acid that had been loaded in the cells. […]
Step VI)—The ascorbic acid present in the washing solution (mg/ml) and in the microorganism (mg/g) was determined by HPLC, by the use of the following formula: mg/g=Ac×Ps×fs×Ds×1000/As×Pc×Dc, […]

[2] = known from the literature; cited from earlier work
[3] = Incorporated vitamins determined by HPLC after 5N HCl or NaOH 0.05N extraction of dried yeast; type: physicochemical, Saccharomyces cerevisiae; settings: Example 10, content in dried loaded yeast; for Incorporated vitamins (HCl extraction), Content: 5N HCl extraction; for Incorporated vitamins (NaOH extraction), Content: NaOH 0.05N extraction
Procedure: In this treatment yeast cells have been partially emptied by the hypertonic solution, comprising NaCl and Trisodium citrate bihydrate, as already described. Vitamins were then incorporated by incubation in a vitamins hypotonic solution (hypotonic=80% isotonicity). The quantity of vitamins loaded into the cells, was measured by HPLC. The suspension was then centrifuged and the centrifugates was washed twice with 560 g NaCl isotonic solution (0.9%). Step IV)-The centrifugate was air-dried at 45° C. for 36 hours. After mincing the dried pellets were sifted on a 400μ net. Step V)-The incorporated vitamins quantities were determined by HPLC af[…] HCl extraction for one hours at 25° C. under gentle stirring and after NaOH 0.05N extraction (one hours at 25° C. under gentle stirring). In this treatment yeast cells have been partially emptied by the hypertonic solution, comprising NaCl and Trisodium citrate bihydrate, as already described. α-tocopherol (vitamin E) was then incorporated by incubation in a vitamin hypotonic solution (hypotonic=80% isotonicity). The quantity of vitamin loaded into the cells, was measured HPLC. […] An aliquot of the solution (B), was then washed one more time with a NaCl isotonic solution Step IV)-The centrifugate was air-dried at 40° C. for 36 hours. The dried mass of cells was minced and then sifted on a 400μ net. Step V)-The incorporated vitamin quantities were determined by HPLC af[…] HCl extraction for one hour at 25° C. under gentle stirring.

Molecule	Incorporated vitamins (HCl extraction), Content [3]	Incorporated vitamins (NaOH extraction), Content [3]	other results
O=C1O[C@H]([C@@H](O)CO)C(O)=C1O [Ascorbic acid, ascorbic acid]			Ascorbic acid final soln. ([1]; Example 5, Test 5NC): 0.16 mg/mL; thermostability of ascorbic acid as such [2]: easily denatured at much lower temperatures
Nc1nc2ncc(CNc3ccc(C(=O)N[C@@H](CCC(=O)O)C(=O)O)cc3)nc2c(=O)[nH]1 [Folic Acid, folic acid]	0.203 0/00 (mg/g)	2.663 0/00 (mg/g)	
CN(C)[C@@H]1C(O)=C(C(N)=O)C(=O)[C@@]2(O)C(O)=C3C(=O)c4c(O)cccc4[C@@](C)(O)[C@H]3[C@H](O)[C@@H]12.Cl [Oxytetracyclin, oxytetracycline HCl]			Oxytetracyclin final soln. ([1]; Example 2, Test 3NO): 0.249 mg/mL
Cc1ncc(C[n+]2csc(CCO)c2C)c(N)n1 [Tiamine, thiamine]	3.787 0/00 (mg/g)	3.493 0/00 (mg/g)	
COc1cc([N-]S(=O)(=O)c2ccc(N)cc2)nc(OC)n1.[Na+] [sulphadimetoxin, sodium sulphadimethoxine]			Sulphadimetoxin final soln. ([1]; Example 3, Test 4NS1): 0.075 mg/mL; Sulphadimetoxin final soln. ([1]; Example 4, Test 6NS1): 0.066 mg/mL
cyanocobalamin	0.018 0/00 (mg/g)	0.014 0/00 (mg/g)	
